Patent publication US11505548B2, “Heterocyclic compounds and their use for treatment of helminthic infections and diseases” (Celgene Corporation, priority 2019, dated 2022)
Read-outs that look alike come from different tables or passages of the source.

System: Onchocerca gutturosa Adult Male Worms
Experiment: Onchocerciasis in vitro screening model, worm motility score
Type: cell-based
Details: read-out: O. gutturosa activity level (IC50 or MED)
[1] = in vitro, Onchocerca gutturosa adult male worms, class A/B/C
[2] = Onchocerca gutturosa, Table 1 O. gutturosa, levels A/B/C, motility or MTT readout not specified

CC(=O)N(C)c1cnc(Nc2n[nH]c(-c3cc4c(cn3)N(C(C)C)CC4)n2)c(C(F)(F)F)c1 [Compound 294, N-(6-(5-(1-isopropyl-2,3-dihydro-1H-pyrrolo[2,3-c]pyridin-5-yl)-1H-1,2,4-triazol-3-ylamino)-5-(trifluoromethyl)pyridin-3-yl)-N-methylacetamide]
IC50 [1]: 500 to 5000 nM

Cc1nccnc1Nc1nc(-c2ccc(OC(C)C)cn2)ns1 [Compound 135, 3-(5-isoprop-oxypyridin-2-yl)-N-(3-methyl-pyrazin-2-yl)-1,2,4-thia-diazol-5-amine]
IC50 [2]: < 200 nM

CC(=O)N(C)c1cccnc1Nc1nc(-c2ccc(OC3COC3)cn2)ns1 [Compound 326, N-methyl-N-(2-(3-(5-(oxetan-3-yloxy)pyridin-2-yl)-1,2,4-thiadiazol-5-ylamino)pyridin-3-yl)acetamide]
IC50 [1]: 500 to 5000 nM

CC(C)Oc1ccc(-c2n[nH]c(Nc3ncccc3N(C)C)n2)nc1 [Compound 140, N2-(3-(5-isoprop-oxypyridin-2-yl)-1H-1,2,4-triazol-5-yl)-N3,N3-dimethyl-pyridine-2,3-diamine]
IC50 [2]: 500 to 5000 nM

Cc1cccnc1Nc1nnc(-c2cc(OC(C)C)ccn2)s1 [Compound 173, 5-(4-isopropoxy-pyridin-2-yl)-N-(3-methyl-pyridin-2-yl)-1,3,4-thia-diazol-2-amine]
IC50 [2]: 500 to 5000 nM

Cc1cccnc1Nc1nc(-c2ccc(OC(C)C)cn2)no1 [Compound 20, 3-(5-isopropoxy-pyridin-2-yl)-N-(3-methyl-pyridin-2-yl)-1,2,4-oxadiazol-5-amine]
IC50 [2]: < 200 nM

CC(C)Oc1ccc(-c2nsc(Nc3ncccc3C(F)(F)F)n2)nc1 [Compound 54, 3-(5-isopropoxy-pyridin-2-yl)-N-(3-(trifluoromethyl)pyridin-2-yl)-1,2,4-thiadiazol-5-amine]
IC50 [2]: < 200 nM

Cc1cccnc1Nc1nnc(-c2ccc(OC3CCOCC3)cn2)[nH]1 [Compound 258, 3-methyl-N-(5-(5-(tetrahydro-2H-pyran-4-yloxy)pyridin-2-yl)-4H-1,2,4-triazol-3-yl) pyridin-2-amine]
IC50 [1]: < 200 nM

Cc1cccnc1Nc1nc(-c2ncc(OC3CC3)cc2C(F)(F)F)ns1 [Compound 93, 3-(5-cyclo-propoxy-3-(trifluoromethyl)pyridin-2-yl)-N-(3-methyl-pyridin-2-yl)-1,2,4-thiadiazol-5-amine]
IC50 [2]: 500 to 5000 nM

Cc1cccnc1Nc1nnc(-c2cc(OC(C)C)ccn2)o1 [Compound 211, 5-(4-isopropoxy-pyridin-2-yl)-N-(3-methyl-pyridin-2-yl)-1,3,4-oxadiazol-2-amine]
IC50 [1]: 500 to 5000 nM

CC(C)c1cccnc1Nc1nc(-c2cc(C(F)(F)F)c(OC3CC3)cn2)ns1 [Compound 109, 3-(5-cyclopropoxy-4-(trifluoromethyl)pyridin-2-yl)-N-(3-isopropyl-pyridin-2-yl)-1,2,4-thiadiazol-5-amine]
IC50 [2]: < 200 nM

CC(=O)N(C)c1cc(C(F)(F)F)cnc1Nc1nc(-c2cc3c(cn2)N(C)CC3)ns1 [Compound 249, N-methyl-N-(2-(3-(1-methyl-2,3-dihydro-1H-pyrrolo[2,3-c]pyridin-5-yl)-1,2,4-thiadiazol-5-ylamino)-5-(trifluoromethyl)pyridin-3-yl)acetamide]
IC50 [1]: 200 to 500 nM

Cc1cccnc1-c1nnc(Nc2ccccn2)[nH]1 [Compound 41, N-(5-(3-methyl-pyridin-2-yl)-4H-1,2,4-triazol-3-yl)pyridin-2-amine]
IC50 [2]: < 200 nM

COc1ccc(Nc2nnc(-c3cc(OC4CCCCC4)ccn3)o2)nc1 [Compound 214, 5-(4-(cyclohexy-loxy)pyridin-2-yl)-N-(5-methoxypyridin-2-yl)-1,3,4-oxadiazol-2-amine]
IC50 [1]: < 200 nM

COc1ccc(-c2nsc(Nc3cc(C(F)(F)F)c(C(C)C)cn3)n2)nc1 [Compound 66, N-(5-isopropyl-4-(trifluoromethyl)pyridin-2-yl)-3-(5-methoxy-pyridin-2-yl)-1,2,4-thiadiazol-5-amine]
IC50 [2]: 200 to 500 nM

CC(C)c1cnc(Nc2nc(-c3cc4c(cn3)OC(C)(C)C4)ns2)cc1C(F)(F)F [Compound 296, 3-(2,2-dimethyl-2,3-dihydrofuro[2,3-c]pyridin-5-yl)-N-(5-isopropyl-4-(trifluoromethyl)pyridin-2-yl)-1,2,4-thiadiazol-5-amine]
IC50 [1]: < 200 nM

Cc1cccnc1Nc1nc(-c2ccc(C(=O)N(C)C)cn2)ns1 [Compound 17, N,N-dimethyl-6-(5-(3-methylpyridin-2-ylamino)-1,2,4-thiadiazol-3-yl)nicotinamide]
IC50 [2]: < 200 nM

CC(C)OC(=O)c1cccnc1Nc1nc(-c2ccc(OC(C)C)cn2)ns1 [Compound 327, isopropyl 2-(3-(5-isopropoxypyridin-2-yl)-1,2,4-thiadiazol-5-ylamino)nicotinate]
IC50 [1]: 500 to 5000 nM

Cc1cccnc1Nc1nc(-c2ccc(C(=O)N3CCN(C)CC3)cn2)ns1 [Compound 57, (4-methyl-piperazin-1-yl)(6-(5-(3-methyl-pyridin-2-ylamino)-1,2,4-thiadiazol-3-yl)pyridin-3-yl) methanone]
IC50 [2]: 500 to 5000 nM

COc1cccnc1Nc1nc(-c2ccc(OCC(F)(F)F)cn2)ns1 [Compound 105, N-(3-methoxy-pyridin-2-yl)-3-(5-(2,2,2-trifluoroethoxy)pyridin-2-yl)-1,2,4-thiadiazol-5-amine]
IC50 [2]: < 200 nM

COc1cc(C(C)C)cnc1Nc1nc(-c2ccc(OC(C)C)cn2)ns1 [Compound 166, 3-(5-isopropoxy-pyridin-2-yl)-N-(5-isopropyl-3-methoxypyridin-2-yl)-1,2,4-thiadiazol-5-amine]
IC50 [2]: < 200 nM

CC(=O)Nc1ccc(-c2nsc(Nc3ncccc3C)n2)nc1 [Compound 29, N-(6-(5-(3-methylpyridin-2-ylamino)-1,2,4-thiadiazol-3-yl)pyridin-3-yl) acetamide]
IC50 [2]: 200 to 500 nM

CC(C)c1cccnc1Nc1nc(-c2ccc(OC3CC3)cn2)ns1 [Compound 74, 3-(5-cyclopropoxy-pyridin-2-yl)-N-(3-isopropylpyridin-2-yl)-1,2,4-thiadiazol-5-amine]
IC50 [2]: < 200 nM

COc1ccc(Nc2nnc(-c3ccc(OC(C)C)cn3)o2)nc1 [Compound 180, 5-(5-isopropoxy-pyridin-2-yl)-N-(5-methoxy-pyridin-2-yl)-1,3,4-oxadiazol-2-amine]
IC50 [2]: 500 to 5000 nM

CC(=O)N(C)c1cc(C(F)(F)F)cnc1Nc1nc(-c2cc(C(C)C)ccn2)ns1 [Compound 301, N-(2-(3-(4-isopropylpyridin-2-yl)-1,2,4-thiadiazol-5-ylamino)-5-(trifluoromethyl)pyridin-3-yl)-N-methylacetamide]
IC50 [1]: < 200 nM

Cc1cccnc1Nc1nc(-c2cc(C(F)(F)F)c(OCC3CC3)cn2)ns1 [Compound 110, 3-(5-(cyclo-propylmethoxy)-4-(trifluoromethyl)pyridin-2-yl)-N-(3-methyl-pyridin-2-yl)-1,2,4-thiadiazol-5-amine]
IC50 [2]: < 200 nM

CC(C)Oc1ccc(-c2nsc(Nc3ncccc3S(=O)(=O)N(C)C)n2)nc1 [Compound 321, 2-(3-(5-isoprop-oxypyridin-2-yl)-1,2,4-thiadiazol-5-ylamino)-N,N-dimethyl-pyridine-3-sulfonamide]
IC50 [1]: 500 to 5000 nM

COc1ccnc(-c2nsc(Nc3ccc(C(C)C)cn3)n2)c1 [Compound 177, N-(5-isopropyl-pyridin-2-yl)-3-(4-methoxy-pyridin-2-yl)-1,2,4-thiadiazol-5-amine]
IC50 [2]: < 200 nM
